Measured values as given in patent publication US5824699A, “Carbazole inhibitors of Cox-2” (American Home Products Corporation, priority 1998, dated 1998).
Counter-ions that a name gives are not always drawn. Like-named read-outs stand apart in the source and are kept apart here. Values belong to the compound of their own block, whether it stands above or below them.

Experiments:
human COX-2 (rhCOX-2) = molecular target: T1, human COX-2 (rhCOX-2) (Homo sapiens, UniProt P35354); assay: inhibition of microsomal human recombinant COX-2 (PGH2 converted to PGF2a, quantified by EIA); assay type: biochemical; conditions: for inhibition at 3 µM: rhCOX-2, at 3 μM; for inhibition at 1 µM: rhCOX-2, at 1 μM; for IC50: rhCOX-2, value in parentheses = IC50, 30 μM arachidonic acid, read-out: % Inhib of rhCOX-2 (IC50); for inhibition at 3.3 µM: rhCOX-2, at 3.3 μM (* sodium salt for Example 19)
T1 construct: made in house; host or cells: Sf9 or CHO cells (microsomal preparation)
T1 sequence (P35354 18-604): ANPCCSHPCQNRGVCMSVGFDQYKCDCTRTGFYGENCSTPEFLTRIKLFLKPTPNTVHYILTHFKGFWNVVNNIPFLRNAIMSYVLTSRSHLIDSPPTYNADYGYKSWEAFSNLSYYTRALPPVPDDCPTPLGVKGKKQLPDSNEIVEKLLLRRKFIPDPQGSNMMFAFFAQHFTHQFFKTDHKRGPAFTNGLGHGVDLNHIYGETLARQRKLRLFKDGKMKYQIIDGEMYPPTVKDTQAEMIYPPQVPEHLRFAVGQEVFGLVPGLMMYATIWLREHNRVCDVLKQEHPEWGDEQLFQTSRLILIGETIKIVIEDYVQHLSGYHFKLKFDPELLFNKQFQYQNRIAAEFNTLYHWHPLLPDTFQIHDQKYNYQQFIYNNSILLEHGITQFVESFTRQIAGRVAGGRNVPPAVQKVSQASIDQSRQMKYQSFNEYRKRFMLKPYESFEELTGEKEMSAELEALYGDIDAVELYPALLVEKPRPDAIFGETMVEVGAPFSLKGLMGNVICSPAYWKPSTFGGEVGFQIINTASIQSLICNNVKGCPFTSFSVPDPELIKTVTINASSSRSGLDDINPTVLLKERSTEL
Procedure: (§1) The microsomal human recombinant enzymes were diluted with buffer (100 mM Tris, pH 7.8 at 37° C.) containing 0.5 mM phenol (964 μl total volume). The enzyme preparations were preincubated with vehicle (DMSO) or compounds in DMSO (1% DMSO in final assay) for 30 min at […]
(§2) The reaction was incubated for 35 s (maximum level of PGH2 accumulation as determined from time course studies), and terminated by addition of 50-60 μL of SnCl2 (1 mg/ml) in 0.1N HCl. PGH2 is quantitatively converted to PGF2a by this reaction ([…] of total conversion). The pH of each tube is adjusted to pH 3.0-3.5 with 1N NaOH and extracted twice with 1.5 ml of ethyl acetate (75-90% efficiency per extraction). Combined ethyl acetate layers were dried under N2 (g) and redissolved in EIA buffer (2.0 ml), and PGF2a was quantified by EIA.

human COX-1 (rhCOX-1) = molecular target: T2, human COX-1 (rhCOX-1) (Homo sapiens, UniProt P23219); assay: inhibition of microsomal human recombinant COX-1 (PGH2 converted to PGF2a, quantified by EIA); assay type: biochemical
T2 construct: made in house; host or cells: Sf9 or CHO cells (microsomal preparation)
T2 sequence (P23219 24-599): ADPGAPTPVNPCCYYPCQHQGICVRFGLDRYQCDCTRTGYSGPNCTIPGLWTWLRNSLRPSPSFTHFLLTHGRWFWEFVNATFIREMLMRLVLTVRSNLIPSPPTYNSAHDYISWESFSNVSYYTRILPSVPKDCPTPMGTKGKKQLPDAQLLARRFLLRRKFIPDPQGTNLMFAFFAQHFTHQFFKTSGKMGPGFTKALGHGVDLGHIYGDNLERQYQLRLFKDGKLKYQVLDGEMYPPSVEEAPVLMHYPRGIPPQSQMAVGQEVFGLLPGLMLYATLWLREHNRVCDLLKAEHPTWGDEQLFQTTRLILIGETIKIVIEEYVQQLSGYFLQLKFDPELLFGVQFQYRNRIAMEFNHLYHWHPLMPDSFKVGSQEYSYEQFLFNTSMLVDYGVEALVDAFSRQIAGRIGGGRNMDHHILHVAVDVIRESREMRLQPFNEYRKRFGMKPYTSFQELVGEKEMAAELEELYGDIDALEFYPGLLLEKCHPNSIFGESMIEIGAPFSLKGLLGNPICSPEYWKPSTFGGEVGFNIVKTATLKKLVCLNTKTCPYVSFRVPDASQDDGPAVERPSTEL
Procedure: as §1, §2

prostaglandin synthesis = conditions: Humber et al., J. Med. Chem. 31, 1712-1719 (1988); U.S. Pat. No. 4,686,213; cited from earlier work
[1] = Humber et al., J. Med. Chem. 31, 1712-1719 (1988); cited from earlier work
[2] = cited from earlier work
COX-2 = conditions: Glaser et al., Eur. J. Pharmacol. 281, 107-111 (1995); cited from earlier work
[3] = Rogers et al., Neurology 43, 1609-1611 (1993); cited from earlier work
[4] = Table 2, read-out: % Inhib of rhCOX-2
[5] = Table 2, rhCOX-1, at 90 μM, read-out: % Inhibn of rhCOX-1
[6] = Table 1, rhCOX-1, at 90 μM, read-out: % Inhibition of rhCOX-1
[7] = Table 3, rhCOX-1, at 90 μM (* sodium salt for Example 19), read-out: % Inhib rhCOX-1
[8] = Table 3, read-out: Inhib rhCOX-2
[9] = Table 1, read-out: % Inhib of rhCOX-2

SMILES: CCC1(CC(=O)O)OCC(=O)c2c1[nH]c1cccc(Br)c21 (stereo not shown) [Example 6, (5-Bromo-1-ethyl-4-oxo-1,3,4,9-tetrahydro-pyrano[3,4-b]indol-1-yl)-acetic acid]
IC50 (human COX-2 (rhCOX-2); Table 1): 1100 nM

SMILES: CCCC1(CC(=O)O)OCC(=O)c2c1[nH]c1ccccc21 (stereo not shown) [Example 2, (1-Propyl-4-oxo-1,3,4,9-tetrahydro-pyrano[3,4-b]indol-1-yl)-acetic acid]
inhibition at 90 µM (human COX-1 (rhCOX-1); [6]): 44% | IC50 (human COX-2 (rhCOX-2); Table 1): 3200 nM

SMILES: CCc1cccc2c3c([nH]c12)C(CC)(CC(=O)O)OCC3=NNS(C)(=O)=O (stereo not shown) [Example 19, [1,8-Diethyl-4-(methanesulfonyl-hydrazono)-1,3,4,9-tetrahydro-pyrano [3,4-b]indol-1-yl]-acetic acid sodium salt]
inhibition at 90 µM (human COX-1 (rhCOX-1); [7]): 96% | inhibition at 3.3 µM (human COX-2 (rhCOX-2); [8]): 50%

SMILES: CCC1(CC(=O)O)OCC(=O)c2c1[nH]c1ccccc21 (stereo not shown) [Example 1, (1-Ethyl-4-oxo-1,3,4,9-tetrahydro-pyrano[3,4-b]indol-1-yl)-acetic acid]
inhibition at 90 µM (human COX-1 (rhCOX-1); [6]): 43% | IC50 (human COX-2 (rhCOX-2); Table 1): 2100 nM

SMILES: CCc1cccc2c3c([nH]c12)C(CC)(CC(=O)O)OCC3=O (stereo not shown) [4-oxo metabolite]
activity in blocking prostaglandin synthesis (prostaglandin synthesis): active in blocking prostaglandin synthesis | oral in vivo antiinflammatory activity [1]: had oral in vivo antiinflammatory activity

SMILES: CCc1cccc2c3c([nH]c12)C(CC)(CC(=O)O)OCC3=O (stereo not shown) [Example 4, 1,8-Diethyl-4-oxo-1,3,4,9-tetrahydro-pyrano-[3,4-b]indole-1-acetic acid]
IC50 (human COX-1 (rhCOX-1); Table 1, rhCOX-1, read-out: % Inhibition of rhCOX-1 (value in parentheses, IC50)): > 270000 nM | IC50 (human COX-2 (rhCOX-2); Table 1): 1900 nM

SMILES: COCC1(CC(=O)O)OCC(=O)c2c1[nH]c1ccccc21 (stereo not shown) [Example 3, (1-Methoxymethyl-4-oxo-1,3,4,9-tetrahydro-pyrano[3,4-b]indol-1-yl)-acetic acid]
inhibition at 3 µM (human COX-2 (rhCOX-2); [9]): 8%

SMILES: CCc1cccc2c3c([nH]c12)C(CC)(CC(=O)O)OCC3 (stereo not shown) [etodolac]
G.I. safety ([2]; in vivo): improved G.I. safety | selectivity for inhibition of COX-2 (COX-2): tenfold

SMILES: CCC1(CC(=O)O)OCC(=O)c2c1[nH]c1cccc(Cl)c21 (stereo not shown) [Example 5, (5-Chloro-1-ethyl-4-oxo-1,3,4,9-tetrahydro-pyrano[3,4-b]indol-1-yl)-aceticacid]
IC50 (human COX-2 (rhCOX-2); Table 1): 1200 nM

SMILES: COc1ccc2c(c1)c(CC(=O)O)c(C)n2C(=O)c1ccc(Cl)cc1 [indomethacin]
G.I. safety ([2]; literature): adverse G.I. side effects | usefulness in the treatment of Alzheimer's disease [3]: useful in the treatment of Alzheimer's disease | selectivity for inhibition of COX-2 (COX-2): relatively non-selective inhibitor of COX-2

Other lines, results leading:

inhibition at 3 µM (human COX-2 (rhCOX-2); [4]): 26%
SMILES: CCC1(CC(=O)O)CCC(=O)c2c1[nH]c1ccccc21 (stereo not shown) [Example 9, [1-Ethyl-4oxo-2,3,4,9-tetrahydro-1H-(carbazol-1-yl)]-acetic acid]

inhibition at 1 µM (human COX-2 (rhCOX-2); [4]): 13%
SMILES: CCCC1(CC(=O)O)CCC(=O)c2c1[nH]c1cc(F)cc(F)c21 (stereo not shown) [Example 17, (5,7-Difluoro-1-propyl-4-oxo-2,3,4,9-tetrahydro-1H-(carbazol-1-yl))-aceticacid]

inhibition at 90 µM (human COX-1 (rhCOX-1); [5]): 85% | inhibition at 3 µM (human COX-2 (rhCOX-2); [4]): 40%
SMILES: CCC1(CC(=O)O)CCC(=O)c2c1[nH]c1c(C(C)C)cccc21 (stereo not shown) [Example 11, [1-Ethyl-8-isopropyl-4-oxo-2,3,4,9-tetrahydro-1H-(carbazol-1-yl)]-acetic acid]

inhibition at 23 µM (human COX-1 (rhCOX-1); Table 2, rhCOX-1, at 23 μM, read-out: % Inhibn of rhCOX-1): 50% | IC50 (human COX-2 (rhCOX-2); Table 2): 700 nM
SMILES: CCC1(CC(=O)O)CCC(=O)c2c1[nH]c1c(F)c(F)ccc21 (stereo not shown) [Example 14, (7.8-Difluoro-1-ethyl-4-oxo-2,3,4,9-tetrahydro-1H-(carbazol-1-yl))-acetic acid]

inhibition at 1 µM (human COX-2 (rhCOX-2); [4]): 30%
SMILES: C=CCC1(CC(=O)O)CCC(=O)c2c1[nH]c1c(F)ccc(F)c21 (stereo not shown) [Example 15, (1-Allyl-5,8-difluoro-4-oxo-2,3,4,9-tetrahydro-1H-(carbazol-1-yl))-acetic acid]

inhibition at 90 µM (human COX-1 (rhCOX-1); [7]): 96% | inhibition at 3.3 µM (human COX-2 (rhCOX-2); [8]): 50%
SMILES: CCc1cccc2c3c([nH]c12)C(CC)(CC(=O)O)OCC3=NO (stereo not shown) [Example 18, [1,8-Diethyl-4-hydroxyimino-1,3,4,9-tetrahydro-pyrano[3.4-b]indol-1-yl]-ace tic acid]

inhibition at 1 µM (human COX-2 (rhCOX-2); [4]): 25%
SMILES: CCC1(CC(=O)O)CCC(=O)c2c1[nH]c1c(F)ccc(F)c21 (stereo not shown) [Example 13, (1-Ethyl-5,8-difluoro-4-oxo-2,3,4,9-tetrahydro-1H-(carbazol-1-yl))-acetic acid]

inhibition at 3 µM (human COX-1 (rhCOX-1); Table 1, rhCOX-1, at 3 μM): 78% | IC50 (human COX-2 (rhCOX-2); Table 1): 370 nM
SMILES: C=CCc1c(F)ccc2c3c([nH]c12)C(CC)(CC(=O)O)OCC3=O (stereo not shown) [Example 8, 8-Allyl-1-ethyl-7-fluoro-4-oxo-1,3,4,9-tetrahydropyrano[3,4-b]indole-1-acetic acid]

inhibition at 1 µM (human COX-2 (rhCOX-2); [4]): 29%
SMILES: CCCC1(CC(=O)O)CCC(=O)c2c1[nH]c1c(F)ccc(F)c21 (stereo not shown) [Example 16, (5,8-Difluoro-4-oxo-1-propyl-2,3,4,9-tetrahydro-1H-(carbazol-1-yl))-aceticacid]

inhibition at 1 µM (human COX-2 (rhCOX-2); [9]): 7%
SMILES: CCC1(CC(=O)O)OCC(=O)c2c1[nH]c1cccc(C#N)c21 (stereo not shown) [Example 7, 5-Cyano-1-ethyl-4-oxo-1,3,4,9-tetrahydropyrano[3,4-b]indole-1-acetic acid]

inhibition at 30 µM (human COX-1 (rhCOX-1); Table 2, rhCOX-1, at 30 μM, read-out: % Inhibn of rhCOX-1): 5% | inhibition at 1 µM (human COX-2 (rhCOX-2); [4]): 12%
SMILES: CCC1(CC(=O)O)CCC(=O)c2c1[nH]c1cccc(Cl)c21 (stereo not shown) [Example 12, [1-Ethyl-5-chloro-4-oxo-2,3,4,9-tetrahydro-1H-(carbazol-1-yl)]-acetic acid]

inhibition at 1 µM (human COX-2 (rhCOX-2); [8]): 18%
SMILES: CCc1cccc2c3c([nH]c12)C(CC)(CC(=O)O)CCC3=NO (stereo not shown) [Example 20, (1,8-Diethyl-4-hydroxyimino-2,3,4,9-tetrahydro-1H-carbazol-1-yl)-acetic acid]

inhibition at 90 µM (human COX-1 (rhCOX-1); [5]): 26% | IC50 (human COX-2 (rhCOX-2); Table 2): 2000 nM
SMILES: CCc1cccc2c3c([nH]c12)C(CC)(CC(=O)O)CCC3=O (stereo not shown) [Example 10, [1,8-Diethyl-4-oxo-2,3,4,9-tetrahydro-1H-(carbazol-1-yl)]-acetic acid]
